This note sets out measurements from patent publication US20200239530A1, “COMPOUNDS AND METHODS OF MODULATING PROTEIN DEGRADATION” (Vividion Therapeutics, Inc., priority 2017, published 2020).

What all share (assay): Cysteine liganding, probe competition
Holding throughout (assay type): binding

Experiment [1] addresses ANAPC16 Anaphase-promoting complex subunit 16 (Homo sapiens, UniProt Q96DE5). Details: endogenous in cells. On the procedure: (§1) Cells were resuspended in cold PBS on ice and sonicated with a probe sonicator to achieve lysis. 200 μL of lysate containing 5 mg/ml proteome was treated with 2 μL of 100× compound stock in a 2-mL deep-well plate. The treated lysate was subsequently incubate at 25° C. for 1 hr with shaking at 600 rpm. The treated lysate was further incubated with 2 μL of 10 mM desthiobiotin iodoacetamide probe at 25° C. for 1 hr with shaking at 600 rpm. Next, the lysate was further treat with 20 μL of solution of PBS containing 11 mM MgSO4 and 2.5% Turbonuclease stock and incubated at 25° C. for 20 minutes with shaking at 600 rpm. 1.7 mL ice-cold acetone was added to each well and incubated at −20° C. for 2 hr, followed by max speed (4200 rpm) spin for 45 min. Acetone was then decanted and the plates were blotted to remove acetone. The plates were then dried in open air for 20 minutes. After drying, the plates were then covered with foil seal and stored at −80° C. overnight.
(§2) The next day, samples were re-suspended in 90 μL of solution of 9M urea, 50 mM ammonium bicarbonate and 10 mM DTT by incubating at 65C for 20 min with shaking at 1500 rpm. Next, samples were cooled to 37° C. and then 10 μL of 500 mM iodoacetamide solution (92.48 mg/ml) was added. The samples were then incubated at 37° C. for 30 min with shaking at 600 rpm.
(§3) ZEBA desalting plates were equilibrated 4 times using 250 μL of 2M urea, 50 mM ammonium bicarbonate solution followed by centrifugation at 1500 rpm for 2 minutes. After equilibration was complete, samples were applied to ZEBA desalting plate and spin at 1500 rpm for 2 min on top of 1 mL 96-well deep-well collection plate to buffer exchange samples. 4 μL of solution containing 25 mM CaCl2 and 0.25 mg/mL trypsin was added to the plate and the plate was then incubated at 37° C. for 2 hrs with shaking at 600 rpm. 300 μL of solution containing 5% high-capacity streptavidin agarose slurry in 25 mM Tris-HCl pH 7.5, 150 mM NaCl, and 0.1% NP-40 then added. The plate was incubated at 25° C. for 2 hrs with shaking at 600 rpm. Samples were transferred to 25 μm filter plate and spin at 1000 rpm for 2 min. Samples were then washed 3 times with 0.75 mL of wash buffer (25 mM Tris-HCl pH 7.5, 150 mM NaCl, and 0.1% NP-40) followed by washing 3 times with 0.75 mL PBS, and then 4 times with 0.75 mL water. After the washing step, samples were eluted into polypropylene 96-well plate by addition of 250 µL of 50% MeCN/water, 0.1% formic acid and allowed to gravity drip for 10 min, followed by centrifugation at 1000 rpm for 2 min. Speedvac was used to dry the plates at about 45° C. for […]. Then the plates were covered with foil seal and stored at −20° C.
(§4) Samples were resuspended by addition of 20 μl of 12.5% ACN, 0.1% formic acid solution, covered with foil seal, and incubated at 42° C. for 10 minutes with shaking at 600 rpm. Then add 30 μL of 0.1% formic acid solution was added and the plate was covered and incubated at 42° C. for 10 minutes with shaking at 600 rpm. Seal plate was then sealed with a 96-well silicon mat for analysis.

Experiment [2] addresses T1, Polycomb group RING finger protein 6 (PCGF6) (Homo sapiens, UniProt Q9BYE7).
T1 construct: Cells were resuspended in cold PBS on ice and sonicated with a probe sonicator to achieve lysis; endogenous in cells
T1 sequence (Q9BYE7 1-350): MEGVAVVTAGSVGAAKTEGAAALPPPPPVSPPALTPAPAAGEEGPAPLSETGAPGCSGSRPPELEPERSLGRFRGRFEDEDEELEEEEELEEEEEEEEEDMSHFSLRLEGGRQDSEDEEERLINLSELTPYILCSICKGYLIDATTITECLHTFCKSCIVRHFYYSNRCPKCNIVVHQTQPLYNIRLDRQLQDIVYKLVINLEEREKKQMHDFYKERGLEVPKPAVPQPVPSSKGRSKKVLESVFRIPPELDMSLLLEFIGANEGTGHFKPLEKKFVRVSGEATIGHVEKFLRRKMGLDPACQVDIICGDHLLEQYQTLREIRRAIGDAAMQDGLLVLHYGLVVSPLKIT
Here is the method: as §1, §2, §3, §4

Experiment [3] deals with T2, TRIM71 E3 ubiquitin-protein ligase TRIM71 (Homo sapiens, UniProt Q2Q1W2).
T2 construct: Cells were resuspended in cold PBS on ice and sonicated with a probe sonicator to achieve lysis; endogenous in cells
T2 sequence (Q2Q1W2 1-868): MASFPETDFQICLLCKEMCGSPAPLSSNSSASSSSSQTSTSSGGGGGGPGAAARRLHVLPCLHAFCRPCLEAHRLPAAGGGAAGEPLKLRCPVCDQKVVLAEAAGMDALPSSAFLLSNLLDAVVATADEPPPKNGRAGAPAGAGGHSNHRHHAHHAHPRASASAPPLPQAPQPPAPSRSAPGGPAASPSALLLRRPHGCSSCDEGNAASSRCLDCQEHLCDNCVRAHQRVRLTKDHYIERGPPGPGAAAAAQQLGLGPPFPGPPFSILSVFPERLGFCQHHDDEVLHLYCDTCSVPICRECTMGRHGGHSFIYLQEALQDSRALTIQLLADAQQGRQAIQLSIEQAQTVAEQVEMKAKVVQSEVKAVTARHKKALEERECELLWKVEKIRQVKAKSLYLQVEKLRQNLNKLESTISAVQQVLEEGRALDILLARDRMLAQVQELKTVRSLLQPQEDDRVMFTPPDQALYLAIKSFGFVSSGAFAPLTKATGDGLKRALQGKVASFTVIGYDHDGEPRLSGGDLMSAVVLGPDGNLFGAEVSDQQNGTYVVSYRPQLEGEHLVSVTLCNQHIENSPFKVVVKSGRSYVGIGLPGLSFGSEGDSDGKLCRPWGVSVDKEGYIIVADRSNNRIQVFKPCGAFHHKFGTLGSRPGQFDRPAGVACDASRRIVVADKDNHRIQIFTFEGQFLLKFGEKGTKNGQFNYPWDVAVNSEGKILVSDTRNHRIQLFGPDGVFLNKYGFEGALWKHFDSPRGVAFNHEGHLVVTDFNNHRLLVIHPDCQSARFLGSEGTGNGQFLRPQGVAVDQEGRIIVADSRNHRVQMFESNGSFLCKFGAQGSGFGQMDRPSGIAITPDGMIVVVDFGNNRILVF
On the procedure: as §1, §2, §3, §4

Like-named read-outs stand apart in the source and are kept apart here.

As for `O=C(CCl)Nc1cc(C(F)(F)F)cc(C(F)(F)F)c1` [KBO3], the “KB03_100 uM_percent_inhibition” value in experiment [1] (100 uM, UniProt Q96DE5) came out at 52%; in experiment [2] (100 uM) it was 41%; in experiment [3] (100 uM, UniProt Q2Q1W2), 17%. For the same molecule, the “KB03_500 uM_percent_inhibition” value in experiment [1] (500 uM, UniProt Q96DE5) is listed as 82%. Further, the results for the “500 Max” value in experiment [1] (uniprot Q96DE5) and in experiment [3] (uniprot Q2Q1W2) were 36.5 and 64.2, respectively. Besides, the 100 Max in experiment [1] (uniprot Q96DE5, unit assumed) worked out at 20.4%; in experiment [3] (uniprot Q2Q1W2), 17.2. This molecule also displayed a 100 ave in experiment [3] (uniprot Q2Q1W2) of 17.2. This molecule also yielded a 500 ave in experiment [3] (uniprot Q2Q1W2) of 64.2.

For the molecule `COc1ccc2c(c1)CCCN2C(=O)CCl` [KB02], the inhibition at 100 µM is 46% in experiment [1] (100 uM, UniProt Q96DE5, read-out: KB02_100 uM_percent_inhibition) and 39% in experiment [3] (100 uM, UniProt Q2Q1W2, read-out: KB02_100 uM_percent_inhibition). In addition, the inhibition at 500 µM came out at 85% in experiment [1] (500 uM, UniProt Q96DE5, read-out: KB02_500 uM_percent_inhibition) and 37% in experiment [2] (500 uM, read-out: KB02_500 uM_percent_inhibition). Also, the Liganded entry is listed as “YES” in experiment [1] (ANAPC16 Res# 55, uniprot Q96DE5) and “YES” in experiment [3] (TRIM71 Res# 636, uniprot Q2Q1W2).

In the case of `C=CC(=O)N(c1ccccc1)c1ccc(Br)cc1` [KB05], the inhibition at 100 µM in experiment [1] (100 uM, UniProt Q96DE5, read-out: KB05_100 uM_percent_inhibition) was determined as 37%; in experiment [3] (100 uM, UniProt Q2Q1W2, read-out: KB05_100 uM_percent_inhibition) it was 5%. For the same molecule, the inhibition at 500 µM in experiment [1] (500 uM, UniProt Q96DE5, read-out: KB05_500 uM_percent_inhibition) was determined as 83%; in experiment [2] (500 uM, read-out: KB05_500 uM_percent_inhibition) it was 33%. Further, the “KB05_500 uM_percent_inhibition” value in experiment [2] (500 uM) is on record as 48%.
